Test results from US6608004B2, “Substituted 2-aryl-1,2,4-triazine-3,5-di(thi)ones” (priority 1999, dated 2003).
Like-named read-outs stand apart in the source and are kept apart here.

What was measured:
[1] = test system: crop plants, such as, for example, barley and wheat; experiment: Post-Emergence Test (Example B), tolerance by crop plants
Source text: (§1) Solvent: 5 parts by weight of acetone
(§2) Emulsifier: 1 part by weight of alkylaryl polyglycol ether
(§3) After three weeks, the degree of damage to the plants is rated in % damage in comparison to the development of the untreated control.

[2] = test system: crop plants, such as, for example, barley, wheat, rapeseed, soya and sugar beet; experiment: Pre-Emergence Test (Example A), tolerance by crop plants; format: in vivo
Source text: as §1, §2
(§4) Seeds of the test plants are sown in normal soil.

[3] = logP determination by HPLC, reversed-phase column (C 18), EEC Directive 79/831 Annex V.A8
Source text: (a) Mobile phases for the determination in the acidic range: 0.1% aqueous phosphoric acid, acetonitrile; linear gradient from 10% acetonitrile to 90% acetonitrile—the corresponding measurement results are labelled in Table 1 with ^a).
(b) Mobile phases for the determination in the neutral range: 0.01 molar aqueous phosphate buffer solution, acetonitrile; linear gradient from 10% acetonitrile to 90% acetonitrile—the corresponding measurement results are labelled in Table 1 with ^b).

weeds [4] = experiment: Post-Emergence Test (Example B), activity against weeds; format: in vivo; settings: test plants of a height of 5-15 cm sprayed, rated after three weeks
Source text: as §1, §2, §3

weeds [5] = experiment: Pre-Emergence Test (Example A), activity against weeds; format: in vivo; settings: soil sprayed about 24 hours after sowing, rated after three weeks
Source text: as §1, §2, §4
0%=no effect (like untreated control)

[6] = pre-emergence, barley, wheat, rapeseed, soya and sugar beet, rated after three weeks
[7] = a) acidic range: 0.1% aqueous phosphoric acid, acetonitrile gradient, HPLC C 18, 43° C.

## CCS(=O)(=O)N(C(=O)CCCCCl)c1cc(-n2ncc(=O)n(C)c2=O)c(F)cc1C#N [Example 22]
[1]; in vivo
  tolerance by crop plants: essentially being tolerated well
[2]; in vivo
  tolerance by crop plants: essentially being tolerated well
[3]
  logP a): logP = 2.65^a)
Weeds [4]
  activity against weeds (degree of damage): very strong activity
Weeds [5]
  activity against weeds (degree of damage): very strong activity

## CCS(=O)(=O)N(C(=O)COc1ccc(Cl)cc1)c1cc(-n2ncc(=O)n(C)c2=O)c(F)cc1C#N [Example 6]
[1]; in vivo
  tolerance by crop plants: essentially being tolerated well
[2]; in vivo
  tolerance by crop plants: essentially being tolerated well
[3]
  logP a): m.p.: 65 °C logP = 3.07^a)
Weeds [4]
  activity against weeds (degree of damage): very strong activity
Weeds [5]
  activity against weeds (degree of damage): very strong activity

## CCS(=O)(=O)N(C(=O)COC)c1cc(-n2ncc(=O)n(C)c2=O)c(F)cc1C#N [Example 25]
[1]; in vivo
  tolerance by crop plants: essentially being tolerated well
[2]; in vivo
  tolerance by crop plants: essentially being tolerated well
[3]
  logP a): logP = 1.82^a)
Weeds [4]
  activity against weeds (degree of damage): very strong activity
Weeds [5]
  activity against weeds (degree of damage): very strong activity

## CCS(=O)(=O)N(C(=O)c1ccccc1F)c1cc(-n2ncc(=O)n(C)c2=O)c(F)cc1C#N [Example 5]
[1]; in vivo
  tolerance by crop plants: essentially being tolerated well
[2]; in vivo
  tolerance by crop plants: essentially being tolerated well
[3]
  logP a): m.p.: 176 °C logP = 2.52^a)
Weeds [4]
  activity against weeds (degree of damage): very strong activity
Weeds [5]
  activity against weeds (degree of damage): very strong activity

## C/C=C/C(=O)N(c1cc(-n2ncc(=O)n(C)c2=O)c(F)cc1C#N)S(=O)(=O)CC [Example 18]
[1]; post-emergence, barley and wheat, rated after three weeks
  tolerance by crop plants: essentially being tolerated well
[2]; [6]
  tolerance by crop plants: essentially being tolerated well
[3]; [7]
  logP a): m.p.: 153 °C logP = 2.16^a)
Weeds [4]
  activity against weeds (degree of damage): very strong activity
Weeds [5]
  activity against weeds (degree of damage): very strong activity

## CCS(=O)(=O)N(C(=O)CCC1CCCC1)c1cc(-n2ncc(=O)n(C)c2=O)c(F)cc1C#N [Example 46]
[1]; in vivo
  tolerance by crop plants: essentially being tolerated well
[2]; in vivo
  tolerance by crop plants: essentially being tolerated well
[3]
  logP a): m.p.: 143 °C logP = 3.34^a)
Weeds [4]
  activity against weeds (degree of damage): very strong activity
Weeds [5]
  activity against weeds (degree of damage): very strong activity

## C=CC(=O)N(c1cc(-n2ncc(=O)n(CCF)c2=O)c(F)cc1C#N)S(C)(=O)=O [Example 62]
[3]; [7]
  logP a): m.p.: 142 °C logP = 1.93^a)

## CCS(=O)(=O)N(C(=O)Cc1ccc(F)cc1F)c1cc(-n2ncc(=O)n(C)c2=O)c(F)cc1C#N [Example 36]
[1]; in vivo
  tolerance by crop plants: essentially being tolerated well
[2]; in vivo
  tolerance by crop plants: essentially being tolerated well
[3]
  logP a): m.p.: 210 °C logP = 2.73^a)
Weeds [4]
  activity against weeds (degree of damage): very strong activity
Weeds [5]
  activity against weeds (degree of damage): very strong activity

## CCS(=O)(=O)N(C(=O)CCCBr)c1cc(-n2ncc(=O)n(C)c2=O)c(F)cc1C#N [Example 30]
[1]; in vivo
  tolerance by crop plants: essentially being tolerated well
[2]; in vivo
  tolerance by crop plants: essentially being tolerated well
[3]
  logP a): logP = 2.51^a)
Weeds [4]
  activity against weeds (degree of damage): very strong activity
Weeds [5]
  activity against weeds (degree of damage): very strong activity

## CCS(=O)(=O)N(C(=O)C(C)Oc1ccccc1)c1cc(-n2ncc(=O)n(C)c2=O)c(F)cc1C#N (racemic) [Example 39]
[1]; in vivo
  tolerance by crop plants: essentially being tolerated well
[2]; in vivo
  tolerance by crop plants: essentially being tolerated well
[3]
  logP a): m.p.: 132 °C logP = 2.85^a)
Weeds [4]
  activity against weeds (degree of damage): very strong activity
Weeds [5]
  activity against weeds (degree of damage): very strong activity

## CCS(=O)(=O)N(C(=O)c1ccc(C(C)(C)C)cc1)c1cc(-n2ncc(=O)n(C)c2=O)c(F)cc1C#N [Example 49]
[1]; in vivo
  tolerance by crop plants: essentially being tolerated well
[2]; in vivo
  tolerance by crop plants: essentially being tolerated well
[3]
  logP a): m.p.: 119 °C logP = 3.57^a)
Weeds [4]
  activity against weeds (degree of damage): very strong activity
Weeds [5]
  activity against weeds (degree of damage): very strong activity

## CCS(=O)(=O)N(C(=O)N1CCCC1)c1cc(-n2ncc(=O)n(C)c2=O)c(F)cc1C#N [Example 69]
[3]
  logP a): m.p.: 192 °C logP = 2.05^a)

## CCS(=O)(=O)N(C(=O)/C=C/c1ccc2c(c1)OCO2)c1cc(-n2ncc(=O)n(C)c2=O)c(F)cc1C#N [Example 77]
[3]; [7]
  logP a): m.p.: 141 °C logP = 2.72^a)

## CCS(=O)(=O)N(C(=O)c1snnc1C)c1cc(-n2ncc(=O)n(C)c2=O)c(F)cc1C#N [Example 68]
[3]
  logP a): m.p.: 189 °C logP = 1.73^a)

## CCS(=O)(=O)N(C(=O)c1ccc(OC)cc1)c1cc(-n2ncc(=O)n(C)c2=O)c(F)cc1C#N [Example 11]
[2]; [6]
  tolerance by crop plants: essentially being tolerated well
[3]
  logP a): m.p.: 94 °C logP = 2.77^a)
Weeds [5]
  activity against weeds (degree of damage): very strong activity

## C=CC(=O)N(c1cc(-n2ncc(=O)n(CCF)c2=O)c(F)cc1C#N)S(=O)(=O)CC [Example 65]
[3]; [7]
  logP a): m.p.: 83 °C logP = 2.14^a)

## CCS(=O)(=O)N(C(=O)C(C)c1c(Cl)cccc1Cl)c1cc(-n2ncc(=O)n(C)c2=O)c(F)cc1C#N (racemic) [Example 34]
[3]; [7]
  logP a): m.p.: 159 °C logP = 3.07^a)

## CCS(=O)(=O)N(C(=O)c1cn(C)nc1C(F)(F)F)c1cc(-n2ncc(=O)n(C)c2=O)c(F)cc1C#N [Example 67]
[3]
  logP a): m.p.: 199 °C logP = 2.54^a)

## CCS(=O)(=O)N(C(=O)N(C(C)C)C(C)C)c1cc(-n2ncc(=O)n(C)c2=O)c(F)cc1C#N [Example 71]
[3]
  logP a): m.p.: 188 °C logP = 2.92^a)

## CCS(=O)(=O)N(C(=O)Oc1ccc(F)cc1)c1cc(-n2ncc(=O)n(C)c2=O)c(F)cc1C#N [Example 74]
[3]
  logP a): m.p.: 202 °C logP = 2.85^a)

## CCS(=O)(=O)N(C(=O)Cc1cc(OC)ccc1OC)c1cc(-n2ncc(=O)n(C)c2=O)c(F)cc1C#N [Example 81]
[3]
  logP a): m.p.: 192 °C logP = 2.66^a)

## C=CC(=O)N(c1cc(-n2ncc(=O)n(CCF)c2=O)c(F)cc1C#N)S(=O)(=O)CCC [Example 64]
[3]; [7]
  logP a): m.p.: 142 °C logP = 2.46^a)

## CCS(=O)(=O)N(C(=O)Cc1ccccc1OC)c1cc(-n2ncc(=O)n(C)c2=O)c(F)cc1C#N [Example 80]
[3]
  logP a): m.p.: 140 °C logP = 2.70^a)

## CCS(=O)(=O)N(C(=O)C1CCc2ccccc2O1)c1cc(-n2ncc(=O)n(C)c2=O)c(F)cc1C#N (racemic) [Example 38]
[3]
  logP a): m.p.: 115 °C logP = 2.93^a)

## CCS(=O)(=O)N(C(=O)CC(c1ccccc1)c1ccccc1)c1cc(-n2ncc(=O)n(C)c2=O)c(F)cc1C#N [Example 78]
[3]
  logP a): m.p.: 183 °C logP = 3.48^a)

## C/C=C/C(=O)N(c1cc(-n2ncc(=O)n(CCF)c2=O)c(F)cc1C#N)S(C)(=O)=O [Example 63]
[3]; [7]
  logP a): m.p.: 85 °C logP = 2.12^a)

## CCS(=O)(=O)N(C(=O)Cc1cccc(OC)c1)c1cc(-n2ncc(=O)n(C)c2=O)c(F)cc1C#N [Example 82]
[3]
  logP a): m.p.: 158 °C logP = 2.63^a)

## CCS(=O)(=O)N(C(=O)CCCc1ccc(OC)cc1)c1cc(-n2ncc(=O)n(C)c2=O)c(F)cc1C#N [Example 76]
[3]
  logP a): logP = 3.03^a)
